Assay type in all cases: in vivo
In one data set the test system is Plamopara viticola. Briefly: Grapevine leaf disc test: disease suppression. The note with it: alone, 7 days at 21°C. How it is done: Leaf discs of grapevine (cv. Cabernet Sauvignon) 23mm in diameter, were supported on water agar in petri dishes, and sprayed with various aqueous test preparations. After the spray had dried, the discs were inoculated with Plamopara viticola. The dishes were closed and incubated for 7 days at 21°C. At the end of this period, the percentage area of each disc covered with sporulating downy mildew was estimated, and compared with that on inoculated, untreated control discs.
In this Table, the theorectical degree of disease suppression, assuming that the two fungicides act independently (i.e. additively) is calculated using the formula: [formula] where x and y are the activities of the two components used separately. If the actual degree of disease suppression (as measured in the test) is greater than the calculated value, then the two fungicides have interacted synergistically.

The test system of data set [1] is grapevines (cv Sauvignon). The data set can be described thus: Field spray test on adult fruit-bearing grapevines: phytotoxicity rating. The note with it: mean rating 0-5. On the procedure:
(§1) The fungicidal and phytotoxic effects of the sodium salt of N-hydroxy-N-formylalanine in admixture with N-(trichlormethyl- thio)phthalimide were compared to those of the N-hydroxy-N-formylalanine salt alone using the following procedure. The test solutions were sprayed onto adult, fruit-bearing grapevines (cv Sauvignon) at 18 day intervals during June, July and August. Four replicate plots were treated. Controls were left untreated.
(§2) The test solutions contained the active ingredient(s), distilled water and 100ppm of Tween 20 surfactant (Trade mark).
(§3) Assessments of the disease level and phytotoxicity were made 19 days after the 1st treatment, and then after a further 4 weeks (11 days after the 3rd treatment) .
Phytotoxicity is expressed as a mean rating compared with the control according to the criteria, • 0 = absolutely no phytotoxicity • 1 = doubtful occurence of phytotoxicity • 2 = distinct, but very slight phytotoxicity • 3,4 = slight to moderate phytotoxicity • 5 = phytotoxicity of an unacceptable degree.

Another data set has as its system Plasmopara viticola. Briefly: Field spray test on adult fruit-bearing grapevines: disease level. Particulars: percentage of disease level on control vines. On the procedure: as §1, §2
Seven days after the first spray application and 13 days after the third spray application the vines were innoculated with a spore suspension containing Plasmopara viticola.
as §3
The extent of disease control in the test is expressed as a percentage of the disease level occuring on the control vines.

Setting [2] is: 250 ppm sodium salt alone, 11 days after 3rd application.
Setting [3] is: 250 ppm sodium salt alone, 19 days after 1st application.
The mark [4] stands for this setting: 500 ppm sodium salt alone, 11 days after 3rd application.
Setting [5] is: 500 ppm sodium salt alone, 19 days after 1st application.

Counter-ions that a name gives are not always drawn.

Turning to `O=C1c2ccccc2C(=O)N1SC(Cl)(Cl)Cl` [N-(trichloromethylthio) phthalimide, N-(trichloromethylthio)phthalimide, reference compound], the entries for the “Disease Suppression (% of control) Actual” value in the data set on Plamopara viticola (1 ppm in spray), in the data set with Plamopara viticola (5 ppm in spray) and with Plamopara viticola (10 ppm in spray) were -16.2 % of control, -2.7 % of control and 82.4 % of control, respectively.
Regarding `CC(C(=O)O)N(O)C=O` (centres unmarked) [sodium salt of N-hydroxy-N-formylalanine], the PHYTOTOXICITY was determined as 0.8 in data set [1] (setting [2]), 0.5 in data set [1] (setting [3]), 1.5 in data set [1] (setting [4]) and 2.0 in data set [1] (setting [5]). Also, the “Disease Suppression (% of control) Actual” value with Plamopara viticola (7.5 ppm in spray) is -8.1 % of control; in the data set on Plamopara viticola (15.0 ppm in spray), -2.7 % of control; in the data set on Plamopara viticola (30.0 ppm in spray), 37.8 % of control. Also, the DISEASE with Plasmopara viticola (setting [2]) is on record as 26.8%; in the data set on Plasmopara viticola (setting [3]) it was 34.7%; with Plasmopara viticola (setting [4]), 14.4%; in the data set with Plasmopara viticola (setting [5]), 17.6%.

Values taken from patent EP0082577A1, “Fungicidal composition and method of combating fungal growth” (SHELL INTERNATIONALE RESEARCH MAATSCHAPPIJ B.V., priority 1981, dated 1983).
